Values quoted from earlier work in paper PMC12839115, “2-Arylbenzofurans as Selective Cholinesterase Inhibitors: Design, Synthesis, and Evaluation as Alzheimer’s Disease Agents” (Biomolecules, 2026).

Target: T1, BChE (EC 3.1.1.8) from equine serum (Equus caballus, UniProt P81908)
T1 construct: BChE (EC 3.1.1.8) from equine serum were employed; from tissue; host or cells: equine serum
T1 sequence (P81908 whole entry): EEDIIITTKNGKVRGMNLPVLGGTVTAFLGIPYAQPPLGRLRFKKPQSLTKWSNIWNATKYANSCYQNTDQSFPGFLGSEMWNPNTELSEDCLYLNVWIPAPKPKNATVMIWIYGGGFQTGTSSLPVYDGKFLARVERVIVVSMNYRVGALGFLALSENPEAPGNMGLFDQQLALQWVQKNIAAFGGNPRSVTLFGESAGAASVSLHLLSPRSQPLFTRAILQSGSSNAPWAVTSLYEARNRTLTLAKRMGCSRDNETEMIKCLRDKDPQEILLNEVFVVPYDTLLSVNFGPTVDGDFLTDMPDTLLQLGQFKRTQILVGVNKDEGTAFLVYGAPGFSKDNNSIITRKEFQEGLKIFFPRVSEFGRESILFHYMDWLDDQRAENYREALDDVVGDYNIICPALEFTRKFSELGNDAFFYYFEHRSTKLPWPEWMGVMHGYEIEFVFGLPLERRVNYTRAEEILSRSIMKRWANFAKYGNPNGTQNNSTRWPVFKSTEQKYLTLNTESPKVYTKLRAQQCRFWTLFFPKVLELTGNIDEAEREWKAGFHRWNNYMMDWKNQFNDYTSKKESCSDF

Row | SMILES | IC50 [µM]
1 | Oc1cccc(-c2cc3cccc(Cl)c3o2)c1 [C00004] | 13.4 ± 2.57
2 | Oc1cccc(-c2cc3cccc(Br)c3o2)c1 [C00010] | 7.96 ± 0.28
